This passage reports remaining activity results from article PMC8286840, “Identifying SARS-CoV-2 antiviral compounds by screening for small molecule inhibitors of Nsp3 papain-like protease” (Biochemical Journal, 2021).

In test [1] the target is T1, SARS-CoV-2 PLpro (nsp3 1564–1878) (Severe acute respiratory syndrome coronavirus 2, UniProt P0DTD1). Briefly: biochemical. Further details: FRET-quenched peptide (Pro3) cleavage by PLpro, 10 min pre-incubation, slope over 20 min, normalised to no-compound control. To be noted: high concentration screen, read-out: % of control remaining.
Test [2] has as its target T1, SARS-CoV-2 PLpro (nsp3 1564–1878). Briefly: biochemical. As to conditions: low concentration screen, read-out: % of control remaining. Also noted: FRET-quenched peptide (Pro3) cleavage by PLpro, 10 min pre-incubation, slope over 20 min, normalised to no-compound control.

Where a name gives a salt, the structure may show the parent alone. Read-outs that look alike come from different tables or passages of the source.

`N[C@@H]1CONC1=O` [D-Cycloserine]: in test [1] (Well no.=78), the remaining activity at 3.75 µM came to 102%. For the same compound, the remaining activity at 1.25 µM in test [2] (Well no.=78) turned out to be 100%.
For the compound `CC#CCOC(=O)c1c(C)nc2sc3c(c2c1N)CCC(O)C3` (stereo not drawn) [SB 205384], the remaining activity at 3.75 µM in test [1] (Well no.=1508) amounted to 96.2%. In addition, the remaining activity at 1.25 µM in test [2] (Well no.=1508) amounted to 97.4%.
On to `C[C@@H]1C(=O)NC2=Nc3cccc(Cl)c3CN21` [Quazinone], for which the remaining activity at 3.75 µM in test [1] (Well no.=1221) was 95.5%. Also, the remaining activity at 1.25 µM in test [2] (Well no.=1221) was found to be 96.6%.
`Cc1c(N)nc([C@H](CC(N)=O)NC[C@H](N)C(N)=O)nc1C(=O)N[C@H](C(=O)N[C@H](C)[C@@H](O)[C@H](C)C(=O)N[C@H](C(=O)NCCc1nc(-c2nc(C(=O)NCCC[S+](C)C)cs2)cs1)[C@@H](C)O)[C@@H](O[C@@H]1O[C@@H](CO)[C@@H](O)[C@H](O)[C@@H]1O[C@H]1O[C@H](CO)[C@@H](O)[C@H](OC(N)=O)[C@@H]1O)c1cnc[nH]1` [Bleomycin sulfate]: the remaining activity at 3.75 µM in test [1] (Well no.=3558) came to 107%. Moreover, the remaining activity at 1.25 µM in test [2] (Well no.=3558) came to 107%.
Turning to `CC1=C(/C=C/C(C)=C/C=C/C(C)=C/C(=O)Nc2ccc(O)cc2)C(C)(C)CCC1` [Retinoic acid p-hydroxyanilide], in test [1] (Well no.=708), the remaining activity at 3.75 µM turned out to be 94.4%. Besides, in test [2] (Well no.=708), the remaining activity at 1.25 µM worked out at 97.5%.
For the compound `O=C1Nc2ccccc2/C1=C1/Nc2ccccc2C1=O` [Indirubin], the remaining activity at 3.75 µM in test [1] (Well no.=3771) was determined as 101%. Also, the remaining activity at 1.25 µM in test [2] (Well no.=3771) was 95.4%.
With `O=C(NCc1ccco1)c1ccc2c(c1)N(Cc1c(F)cccc1Cl)C(=O)CS2` [STING agonist-1], in test [1] (Well no.=8643), the remaining activity at 3.75 µM amounted to 103%. In addition, the remaining activity at 1.25 µM in test [2] (Well no.=8643) worked out at 102%.
Regarding `O=C(NC(NC(=S)Nc1ccc(F)c([N+](=O)[O-])c1)C(Cl)(Cl)Cl)C(c1ccccc1)c1ccccc1` (racemic), the remaining activity at 3.75 µM in test [1] (Well no.=2588) came out at 93.4%. The remaining activity at 1.25 µM in test [2] (Well no.=2588) came to 94.8%.
With `CC(C)=CCC[C@](C)(O)[C@H]1CC[C@]2(C)[C@@H]1[C@H](O)C[C@@H]1[C@@]3(C)CC[C@H](O)C(C)(C)[C@@H]3[C@@H](O[C@@H]3O[C@H](CO)[C@@H](O)[C@H](O)[C@H]3O)C[C@]12C` [Ginsenoside Rh1], in test [1] (Well no.=6546), the remaining activity at 3.75 µM came out at 93.7%. Moreover, the remaining activity at 1.25 µM in test [2] (Well no.=6546) stood at 98.2%.
In the case of `O=S(=O)(c1cccc2cnccc12)N1CCNCC1` [HA-100], the remaining activity at 3.75 µM in test [1] (Well no.=478) was found to be 101%. Moreover, the remaining activity at 1.25 µM in test [2] (Well no.=478) came to 102%.
Consider `CC(C)=CCC[C@](C)(O)[C@H]1CC[C@]2(C)[C@@H]1[C@H](O)C[C@@H]1[C@@]3(C)CC[C@H](O)C(C)(C)[C@@H]3CC[C@]12C` [(20S)-Protopanaxadiol], for which the remaining activity at 3.75 µM in test [1] (Well no.=6300) was 99.5%. In test [2] (Well no.=6300), the remaining activity at 1.25 µM was 106%.
For the compound `O=C1[C@H](CC[C@H](O)c2ccc(F)cc2)[C@@H](c2ccc(O)cc2)N1c1ccc(F)cc1` [Ezetimibe], in test [1] (Well no.=8428), the remaining activity at 3.75 µM worked out at 89.1%. In test [2] (Well no.=8428), the remaining activity at 1.25 µM is 91.6%.
As to `NCC(=O)N1C[C@H](NC(=O)c2ccccc2)C[C@H]1C(=O)O` [Danegaptide Hydrochloride], the remaining activity at 3.75 µM in test [1] (Well no.=8026) is 100%. Besides, the remaining activity at 1.25 µM in test [2] (Well no.=8026) was 98.8%.
Consider `CCCCC[C@H](O)/C=C/C1=C(C/C=C\CCCC(=O)O)C(=O)CC1` [Prostaglandin B2], for which the remaining activity at 3.75 µM in test [1] (Well no.=4471) was found to be 101%. Also, the remaining activity at 1.25 µM in test [2] (Well no.=4471) stood at 96.7%.
Regarding `O=[N+]([O-])c1cn2c(n1)OC[C@@H](OCc1ccc(OC(F)(F)F)cc1)C2` [PA-824], in test [1] (Well no.=4709), the remaining activity at 3.75 µM amounted to 104%. For the same compound, in test [2] (Well no.=4709), the remaining activity at 1.25 µM was determined as 104%.
In the case of `NC(CO)C(=O)NNCc1ccc(O)c(O)c1O` (stereo not drawn) [Benserazide hydrochloride], the remaining activity at 3.75 µM in test [1] (Well no.=367) was 96.5%. Further, in test [2] (Well no.=367), the remaining activity at 1.25 µM is 96.9%.
For the compound `CN1CCN2c3ccccc3Cc3ccccc3C2C1` (stereo not drawn) [Mianserin (hydrochloride)], in test [1] (Well no.=7477), the remaining activity at 3.75 µM was 96.9%. Besides, the remaining activity at 1.25 µM in test [2] (Well no.=7477) stood at 105%.
As to `CC[C@@H](CO)NC(=O)[C@@H]1C=C2c3cccc4[nH]cc(c34)C[C@H]2N(C)C1` [Methylergonovine maleate], the remaining activity at 3.75 µM is 90.6% in test [1] (Well no.=1114) and 98% in test [1] (Well no.=3250). Moreover, the remaining activity at 1.25 µM in test [2] (Well no.=1114) turned out to be 94.9%; in test [2] (Well no.=3250), 98.4%.
`CN1CCN(c2nc3cc(C(F)(F)F)ccc3n3cccc23)CC1` [CGS-12066A maleate]: the remaining activity at 3.75 µM in test [1] (Well no.=437) is 101%. Besides, the remaining activity at 1.25 µM in test [2] (Well no.=437) came out at 102%.
Regarding `CCC[C@@H]1C[C@@H](C(=O)N[C@@H]([C@H]2O[C@H](SC)[C@H](O)[C@@H](O)[C@H]2O)[C@@H](C)O)N(C)C1` [Lincomycin], the remaining activity at 3.75 µM in test [1] (Well no.=1549) amounted to 105%; in test [1] (Well no.=3377), 96.8%. For the same compound, the remaining activity at 1.25 µM turned out to be 102% in test [2] (Well no.=1549) and 96.3% in test [2] (Well no.=3377).
Take `COc1cc2ncnc(Nc3cccc(Cl)c3)c2cc1OC` [AG 1478]: the remaining activity at 3.75 µM in test [1] (Well no.=2643) came out at 99.8%. In addition, the remaining activity at 1.25 µM in test [2] (Well no.=2643) was 97.4%.
For the compound `CN1CCCC1c1cccnc1` (single isomer, unassigned; (-)) [(-)-Nicotine hydrogen tartrate salt], the remaining activity at 3.75 µM in test [1] (Well no.=809) came to 92.5%. Also, the remaining activity at 1.25 µM in test [2] (Well no.=809) worked out at 95.3%.
On to `OCc1c[nH]c2ccccc12` [Indole-3-carbinol], for which the remaining activity at 3.75 µM in test [1] (Well no.=3524) was determined as 102%. Besides, in test [2] (Well no.=3524), the remaining activity at 1.25 µM was determined as 102%.
For `N#Cc1cc2nc(O)c(O)nc2cc1[N+](=O)[O-]` [CNQX disodium], the remaining activity at 3.75 µM in test [1] (Well no.=681) came out at 102%. Also, the remaining activity at 1.25 µM in test [2] (Well no.=681) is 101%.
For `CN1CCC(=C2c3ccccc3CC(=O)c3sccc32)CC1` [Ketotifen], the remaining activity at 3.75 µM in test [1] (Well no.=2056) worked out at 109%. Further, in test [2] (Well no.=2056), the remaining activity at 1.25 µM came to 108%.
With `Fc1ccc([C@@H]2CCNC[C@H]2COc2ccc3c(c2)OCO3)cc1` [Paroxetine], the remaining activity at 3.75 µM in test [1] (Well no.=2093) came out at 101%. Also, in test [2] (Well no.=2093), the remaining activity at 1.25 µM came to 103%.
On to `O=c1ccn([C@@H]2O[C@H](COP(=O)(O)O)[C@@H](O)[C@H]2O)c(=O)[nH]1` [Uridine 5'-monophosphate], for which the results for the remaining activity at 3.75 µM in test [1] (Well no.=7495) and in test [1] (Well no.=8889) were 103% and 99%, respectively. Moreover, the remaining activity at 1.25 µM in test [2] (Well no.=7495) came to 103%; in test [2] (Well no.=8889), 101%.
Turning to `Cc1ccc(NC(=O)C(=O)NC2CC(C)(C)NC(C)(C)C2)cc1` [YYA-021], the remaining activity at 3.75 µM in test [1] (Well no.=8084) was 106%. For the same compound, in test [2] (Well no.=8084), the remaining activity at 1.25 µM amounted to 102%.
In the case of `Cc1cc(NC(=O)Nc2ccc(N(C)C)cc2)c2cc(F)cc(F)c2n1` [SB-408124], the remaining activity at 3.75 µM in test [1] (Well no.=4955) amounted to 94.9%; in test [1] (Well no.=8481), 102%. Also, the results for the remaining activity at 1.25 µM in test [2] (Well no.=4955) and in test [2] (Well no.=8481) were 90.2% and 104%, respectively.
